Calls of active or inactive are those of the source. The rule behind the calls is not given here.
Assays:
[1] = target: T1, Hepatocyte growth factor activator serine protease (Homo sapiens, UniProt Q04756); test: Inhibition of recombinant N-terminal His-tagged HGFA (unknown origin) expressed in baculovirus-infected Sf9 cells incubated for 30 mins prior to cromogenic substrate addition by spectrophotometry
T1 sequence (Q04756 whole entry): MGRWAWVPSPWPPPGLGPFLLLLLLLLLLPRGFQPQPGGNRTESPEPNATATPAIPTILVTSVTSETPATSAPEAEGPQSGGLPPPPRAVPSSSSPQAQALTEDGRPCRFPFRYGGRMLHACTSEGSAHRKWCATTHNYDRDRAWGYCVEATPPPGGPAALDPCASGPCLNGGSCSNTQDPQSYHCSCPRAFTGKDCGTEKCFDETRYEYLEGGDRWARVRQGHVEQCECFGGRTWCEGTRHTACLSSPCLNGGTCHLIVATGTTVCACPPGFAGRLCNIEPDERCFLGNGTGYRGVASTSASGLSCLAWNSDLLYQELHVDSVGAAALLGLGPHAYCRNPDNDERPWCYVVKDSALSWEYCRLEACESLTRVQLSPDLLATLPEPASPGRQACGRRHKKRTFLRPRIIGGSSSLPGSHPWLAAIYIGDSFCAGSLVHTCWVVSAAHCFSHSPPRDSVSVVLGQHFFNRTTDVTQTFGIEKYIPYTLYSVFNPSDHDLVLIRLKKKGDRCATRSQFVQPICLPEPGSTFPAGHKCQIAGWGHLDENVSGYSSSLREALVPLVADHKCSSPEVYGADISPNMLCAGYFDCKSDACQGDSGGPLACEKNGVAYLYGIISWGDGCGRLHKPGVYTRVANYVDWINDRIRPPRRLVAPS

[2] = target: Serine protease hepsin (Homo sapiens, UniProt P05981); test: Inhibition of hepsin (unknown origin) using Boc-QAR-AMC as substrate after 30 mins prior to substrate addition by fluorescence assay
[3] = target: T2, Suppressor of tumorigenicity 14 protein (Homo sapiens, UniProt Q9Y5Y6); test: Inhibition of matripase (unknown origin) using Boc-QAR-AMC as substrate incubated for 30 mins prior to substrate addition by fluorescence assay
T2 sequence (Q9Y5Y6 whole entry): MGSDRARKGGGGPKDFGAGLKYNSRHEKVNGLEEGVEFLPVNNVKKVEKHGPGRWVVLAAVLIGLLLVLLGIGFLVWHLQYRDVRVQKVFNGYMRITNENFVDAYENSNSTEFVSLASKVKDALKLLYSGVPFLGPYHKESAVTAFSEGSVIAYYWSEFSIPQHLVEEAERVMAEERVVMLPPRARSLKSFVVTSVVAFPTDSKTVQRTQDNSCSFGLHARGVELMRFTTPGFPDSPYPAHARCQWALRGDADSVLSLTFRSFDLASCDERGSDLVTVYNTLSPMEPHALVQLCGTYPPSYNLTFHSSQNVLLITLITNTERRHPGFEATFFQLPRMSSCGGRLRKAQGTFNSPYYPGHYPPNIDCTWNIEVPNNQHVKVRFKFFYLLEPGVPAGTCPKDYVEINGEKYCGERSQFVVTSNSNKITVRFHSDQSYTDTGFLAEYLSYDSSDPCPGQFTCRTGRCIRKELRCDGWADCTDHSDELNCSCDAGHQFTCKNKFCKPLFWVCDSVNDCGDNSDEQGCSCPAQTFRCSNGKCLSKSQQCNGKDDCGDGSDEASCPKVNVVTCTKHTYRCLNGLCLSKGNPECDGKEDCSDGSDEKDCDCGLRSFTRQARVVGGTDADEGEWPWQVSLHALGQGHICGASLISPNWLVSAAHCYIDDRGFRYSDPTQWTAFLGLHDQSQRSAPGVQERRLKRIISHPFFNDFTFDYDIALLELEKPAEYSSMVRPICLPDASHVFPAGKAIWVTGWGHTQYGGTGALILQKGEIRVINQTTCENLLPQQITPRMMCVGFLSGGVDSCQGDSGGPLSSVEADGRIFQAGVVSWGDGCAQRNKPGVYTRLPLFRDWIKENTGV

[4] = target: T1, Hepatocyte growth factor activator serine protease; test: Inhibition of HGFA (unknown origin) after 40 mins by Eadie-Hofstee plot analysis
[5] = target: T1, Hepatocyte growth factor activator serine protease; test: Inhibition of recombinant N-terminal His-tagged HGFA (unknown origin) expressed in baculovirus-infected Sf9 cells using Boc-QLR-AMC as substrate incubated for 30 mins prior to substrate addition by fluorescence assay
[6] = target: T3, Hepatocyte growth factor activator serine protease (Homo sapiens) (UniProt Q04756); test: Inhibition of recombinant N-terminal His-tagged HGFA (unknown origin) expressed in baculovirus-infected Sf9 cells using Boc-QLR-AMC as substrate up to 20 uM incubated for 30 mins prior to substrate addition by fluorescence assay
T3 sequence (whole entry): T1 sequence (Q04756 whole entry)

Sequence of Serine protease hepsin (P05981 1-162 limits assumed): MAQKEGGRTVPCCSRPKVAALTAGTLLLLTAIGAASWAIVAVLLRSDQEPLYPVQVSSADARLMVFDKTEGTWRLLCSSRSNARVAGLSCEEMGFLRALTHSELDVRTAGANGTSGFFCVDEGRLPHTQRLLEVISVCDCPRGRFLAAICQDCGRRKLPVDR
Sequence of Serine protease hepsin (P05981 163-417 limits assumed): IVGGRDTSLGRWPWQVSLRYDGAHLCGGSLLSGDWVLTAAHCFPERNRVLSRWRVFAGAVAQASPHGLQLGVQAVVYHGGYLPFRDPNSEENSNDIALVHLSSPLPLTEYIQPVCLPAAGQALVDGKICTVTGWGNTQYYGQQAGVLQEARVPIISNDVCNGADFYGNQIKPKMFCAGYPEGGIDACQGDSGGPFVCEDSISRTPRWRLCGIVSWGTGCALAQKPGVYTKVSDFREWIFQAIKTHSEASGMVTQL

SMILES | IC50 [1] | Ki [2] | Ki [3] | further results
COC(=O)c1ccc2cc(OC(=O)c3ccc(NC(=N)N)cc3)ccc2c1 | 600 nM |  |  | 
CCCCCCNC(=O)N1CCN(C(=O)[C@H](Cc2cccc(C(=N)N)c2)NS(=O)(=O)c2ccc3ccccc3c2)CC1 |  | 1200 nM |  | 
N=C(N)c1cccc(C[C@H](NS(=O)(=O)c2ccc3ccccc3c2)C(=O)N2CCN(C(=O)NCc3ccc(Br)cc3)CC2)c1 |  |  | 4600 nM | 
[H]/N=C(/N)c1ccc(NCc2nc3cc(C(=O)N(CCC(=O)O)c4ccccn4)ccc3n2C)cc1 [DABIGATRAN] |  | 835 nM |  | 
COC(=O)c1ccc(OC(=O)c2ccc(NC(=N)N)cc2)cc1 | 1100 nM |  |  | 
CCc1cc([C@@H](Nc2ccc(C(=N)N)cc2)C(=O)NS(=O)(=O)c2cn(C)cn2)cc2c(C)coc12 |  |  |  | Ki [4]: 590 nM
Cc1ccc(S(=O)(=O)N[C@@H](Cc2cccc(C(=N)N)c2)C(=O)N2CCC[C@H](NC(=O)OCc3ccccc3)C2)cc1 |  |  | 1200 nM | 
CC(C)c1cc(C(C)C)c(S(=O)(=O)N[C@@H](Cc2cccc(C(=N)N)c2)C(=O)N2CCN(C(=O)C3CCNCC3)CC2)c(C(C)C)c1 |  | 7400 nM |  | Ki [5]: 5500 nM
N=C(N)c1cccc(C[C@H](NS(=O)(=O)c2ccc3ccccc3c2)C(=O)N2CCC[C@@H](NC(=O)OCc3ccccc3)C2)c1 |  | 2600 nM | 6700 nM | 
N=C(N)Nc1ccc(C(=O)Oc2ccc([N+](=O)[O-])cc2)cc1 | 820 nM |  |  | 
Cc1ccc(S(=O)(=O)N[C@@H](CCCCN)C(=O)CCl)cc1 |  |  |  | inhibition [6]: inactive
CN(C)C(=O)COC(=O)Cc1ccc(OC(=O)c2ccc(NC(=N)N)cc2)cc1 [CAMOSTAT] | 32000 nM |  |  | 
N=C(N)Nc1ccc(NC(=O)c2ccccc2)cc1 | > 50000 nM |  |  | 
N=C(N)Nc1ccc(C(=O)Oc2cccc([N+](=O)[O-])c2)cc1 | 3000 nM |  |  | 
N=C(N)c1cccc(C[C@H](NS(=O)(=O)c2ccc3ccccc3c2)C(=O)N2CCN(C(=O)NCc3ccccc3)CC2)c1 |  |  | 2600 nM | 
O=C(NC[C@H]1CN(c2ccc(N3CCOCC3=O)cc2)C(=O)O1)c1ccc(Cl)s1 [RIVAROXABAN] |  |  | 3350 nM | 
Cc1ccc(S(=O)(=O)Nc2ccc(NC(=N)N)cc2)cc1 | > 50000 nM |  |  | 
CCc1cc(C(Nc2ccc(C(=N)N)cc2)C(=O)NS(=O)(=O)c2cn(C)cn2)cc2c(C)coc12 (racemic) |  | 553 nM | 7180 nM | Ki [5]: 7100 nM
CC(C)c1cc(C(C)C)c(S(=O)(=O)N[C@@H](Cc2cccc(C(=N)N)c2)C(=O)N2CCN(C(=O)C3CCN(C(=N)N)CC3)CC2)c(C(C)C)c1 |  | 1580 nM | 4.3 nM | Ki [5]: 17000 nM
COC(=O)c1ccc2cc(NS(=O)(=O)c3ccc(NC(=N)N)cc3)ccc2c1 | > 50000 nM |  |  | 
Cc1ccc(S(=O)(=O)N[C@@H](Cc2cccc(C(=N)N)c2)C(=O)N2CCC(c3ccccc3)CC2)cc1 |  | 4700 nM | 480 nM | 
N=C(N)c1cccc(C[C@H](NS(=O)(=O)c2ccc3ccccc3c2)C(=O)N2CCN(C(=O)c3csc4ccccc34)CC2)c1 |  | 3500 nM | 1500 nM | 
N=C(N)Nc1ccc(C(=O)Nc2ccccc2)cc1 | > 50000 nM |  |  | 
N=C(N)c1ccc2cc(OC(=O)c3ccc(N=C(N)N)cc3)ccc2c1 [NAFAMOSTAT] | 150 nM |  |  | 
N=C(N)Nc1ccc(C(=O)Oc2ccc([N+](=O)[O-])cc2Cl)cc1 | 300 nM |  |  | 
N=C(N)Nc1ccc(C(=O)Oc2ccc(C(N)=O)cc2)cc1 | 6800 nM |  |  | 
Cc1ccc(S(=O)(=O)N[C@@H](Cc2cccc(C(=N)N)c2)C(=O)N2CCN(C(=O)NCCc3ccccc3)CC2)cc1 |  | 670 nM | 2500 nM | Ki [5]: > 50000 nM

— ChEMBL document CHEMBL3400148, “Structure-based discovery of small molecule hepsin and HGFA protease inhibitors: Evaluation of potency and selectivity derived from distinct binding pockets” (Bioorg Med Chem, 2015)
